Tests used:
[1] = system: mosquito larva; settings: background statement, Liang and Zhou 1987; cited from earlier work
[2] = background statement, Liang and Zhou 1987; cited from earlier work
[3] = system: Saccharomyces cerevisiae; experiment: Antifungal activity test, growth inhibition zones; type: cell-based; settings: activity of the CS101 and CS102 culture mediums attributed to the variants produced in the mutant strains; FIG. 7
Protocol: FR-008 mutant strains CS101 and CS102 were added (see, FIG. 7). In FIG. 7, the left turbid zone is a zone added with Streptomyces sp. FR-008, the middle is a zone added with the mutant strain CS101, and the right is a zone added with the mutant strain CS102. […] This is caused by the polyketide variants V, VI, VIII, IX, X, XI and XII, which are produced in the mutant strains.

Compound | toxicity against mosquito larva [1] | antifungal activity [2] | antifungal activity of polyketide variants [3]
C[C@H](C[C@H](C)[C@@H]1OC(=O)CC(=O)CCCC(=O)C[C@@H](O)C[C@@H](O)C[C@@H](O)C[C@]2(O)C[C@H](O)[C@H](C(=O)O)[C@H](C[C@H](O[C@@H]3O[C@@H](C)[C@H](O)[C@@H](N)[C@H]3O)/C=C/C=C/C=C/C=C/C=C/C=C/C=C/[C@@H]1C)O2)[C@H](O)CC(=O)c1ccc(N)cc1 [FR-008 polyketide] | high toxicity | antifungal activity | –
C[C@H](C[C@H](C)[C@@H]1OC(=O)CC(=O)CCCC(=O)CCC[C@@H](O)C[C@@H](O)CC(=O)C[C@H](O)[C@H](C(=O)O)[C@@H](O)C[C@H](O[C@@H]2O[C@@H](C)[C@H](O)C(=O)[C@H]2O)/C=C/C=C/C=C/C=C/C=C/C=C/C=C/[C@@H]1C)[C@H](O)CC(=O)c1ccc(N)cc1 [polyketide XII] | – | – | antifungal activity

Source: patent US7595156B2 (priority 2003, dated 2009)
